Patent US8957093B2, “N-biphenylmethylindole modulators of PPARG” (The Scripps Research Institute, priority 2011, dated 2015)

Experiments:
[1] = target: GST-PPARG-LBD (Homo sapiens (Human), UniProt P37231); assay: Lanthascreen PPARG competitive binding assay (Invitrogen, TR-FRET); details: Lanthascreen competitive binding; NA = not active; inc = incomplete curve; read-out: IC50 (nM) Lantha
Procedure, shortened: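 TR-FRET competitive binding of GST-PPARG-LBD with 5 nM Tb-GST-antibody and 5 nM Fluormone Pan-PPAR Green tracer, in TR-FRET buffer C. Compound serially diluted from 10 μM, 2 h dark incubation, in triplicate. Readout is 520/490 nm emission ratio (340 nm excitation), expressed as fold change over 2% DMSO control.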

[2] = system: PPARG (murine PPARg2 or full-length human PPARG, 3xPPRE-luciferase reporter); assay: Cell-based PPRE-luciferase transactivation assay in COS-1 cells; details: for EC50: PPRE-luciferase, COS-1 cells, NA = not active, read-out: EC50 (nM) PPRE; for PPRE transactivation (% in parentheses): rosiglitazone = 100%
Method: Cell-Based Transactivation Assay:
PPRE is a DNA that contains a binding site for PPARG; thus PPRE is a PPAR response element, used herein as a promoter reporter. The binding site is a DR1 response element with the sequence AGGTCA repeated 3 times in tandem and then fused to a construct for luciferase.
Thus, PPRE is the basis of the cell based transactivation assay described below. The plasmid DNA is co-transfected along with a plasmid for PPARG into COS-1 cells. After an overnight incubation, cells are treated with DMSO or compounds.
Confluent COS-1 cells were transfected with 4.5 μg murine PPARg2-pSV Sport or full-length human PPAR9-pSport6, 4.5 μg 3×PPRE-luciferase reporter and 27 μL X-treme Gene 9 transfection reagent in serum-free opti-mem media (Gibco), followed by overnight incubation at 37° C., 5% CO2. Transfected cells were plated in white Perkin Elmer 384-well plates and incubated 4 hours. […] After 18 hour incubation, treated cells were developed with Brite Lite Plus (Perkin Elmer) and read in 384-well Luminescence Perkin Elmer EnVision Multilabel plate reader. Graphs were plotted in triplicate in GraphPad Prism Software as fold change of treated cells over DMSO control cells.

Sequence of GST-PPARG-LBD (P37231 238-503): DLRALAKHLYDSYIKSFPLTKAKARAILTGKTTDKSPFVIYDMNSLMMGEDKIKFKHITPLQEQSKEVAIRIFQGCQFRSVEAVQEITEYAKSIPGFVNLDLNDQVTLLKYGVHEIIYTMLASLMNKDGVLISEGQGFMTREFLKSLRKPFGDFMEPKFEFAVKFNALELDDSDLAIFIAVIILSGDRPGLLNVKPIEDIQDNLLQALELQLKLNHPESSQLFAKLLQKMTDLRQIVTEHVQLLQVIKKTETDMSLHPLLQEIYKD

Compound | IC50 [1] [nM] | EC50 [2] [nM] | PPRE transactivation (% in parentheses) [2]
Cc1c(C)n(Cc2ccc(-c3ccccc3C(=O)O)cc2)c2ccc(C(=O)NCc3ccccc3Br)cc12 [Example 118, 4′-((5-((2-Bromobenzyl)carbamoyl)-2,3-dimethyl-1H-indol-1-yl)methyl)-[1,1′-biphenyl]-2-carboxylic acid] | 17 | 86 | (8%)
Cc1c(C)n(Cc2ccc(-c3ccccc3C(=O)O)cc2)c2ccc(C(=O)NCCN3CCOCC3)cc12 [Example 85, 4′-((2,3-dimethyl-5-(2-morpholinoethylcarbamoyl)-1H-indol-1-yl)methyl)biphenyl-2-carboxylic acid] | > 1000 |  | (0%)
Cc1c(C)n(Cc2ccc(-c3ccccc3C(=O)O)cc2)c2ccc(C(=O)NCc3ccc(S(C)(=O)=O)cc3)cc12 [compound 10, 4′-((2,3-Dimethyl-5-(4-(methylsulfonyl)benzylcarbamoyl)-1H-indol-1-yl)methyl)biphenyl-2-carboxylic acid] | 553 |  | (0%)
Cc1c(C)n(Cc2ccc(-c3ccccc3C(=O)O)cc2)c2ccc(C(=O)NCC3COc4ccccc4C3)cc12 (stereo not drawn) [Example 87, 4′-((5-(chroman-3-ylmethylcarbamoyl)-2,3-dimethyl-1H-indol-1-yl)methyl)biphenyl-2-carboxylic acid] | 17 | 200 | (18%)
Cc1c(C)n(Cc2ccc(-c3ccccc3C(=O)O)cc2)c2ccc(C(=O)NCc3ccc(I)cc3)cc12 [compound 7, 4′-((5-(4-Iodobenzylcarbamoyl)-2,3-dimethyl-1H-indol-1-yl)methyl)biphenyl-2-carboxylic acid] | 4 | 19 | (23%)
Cc1c(C)n(Cc2ccc(-c3ccccc3C(=O)O)cc2)c2ccc(C(=O)NCc3cccc(C(F)(F)F)c3)cc12 [Example 100, 4′-((2,3-dimethyl-5-(3-(trifluoromethyl)benzylcarbamoyl)-1H-indol-1-yl)methyl)biphenyl-2-carboxylic acid] | 191 | 281 | (21%)
Cc1c(C)n(Cc2ccc(-c3ccccc3C(=O)O)cc2)c2ccc(C(=O)NC[C@H](C)c3ccccc3)cc12 [Example 74, (R)-4′-((2,3-dimethyl-5-(2-phenylpropylcarbamoyl)-1H-indol-1-yl)methyl)biphenyl-2-carboxylic acid] | 76 | 300 | (26%)
COc1ccc(CNC(=O)c2ccc3c(c2)c(C)c(C)n3Cc2ccc(-c3ccccc3C(=O)O)cc2)c(OC)c1 [compound 20, 4′-((5-(2,4-Dimethoxybenzylcarbamoyl)-2,3-dimethyl-1H-indol-1-yl)methyl)biphenyl-2-carboxylic acid] | 16 |  | (0%)
CCC(NC(=O)c1ccc2c(ccn2Cc2ccc(-c3ccccc3C(=O)O)cc2)c1)c1ccccc1 (stereo not drawn) [Example 131, 4′-((5-((1-Phenylpropyl)carbamoyl)-1H-indol-1-yl)methyl)-[1,1′-biphenyl]-2-carboxylic acid] | 6 | 6 | (20%)
Cc1c(C)n(Cc2ccc(-c3ccccc3C(=O)O)cc2)c2ccc(C(=O)NCc3ccc(Cl)cc3)cc12 [compound 14, 4′-((5-(4-Chlorobenzylcarbamoyl)-2,3-dimethyl-1H-indol-1-yl)methyl)biphenyl-2-carboxylic acid] | 4 | 70 | (21%)
COCCNC(=O)c1ccc2c(c1)c(C)c(C)n2Cc1ccc(-c2ccccc2C(=O)O)cc1 [Example 92, 4′-((5-(2-methoxyethylcarbamoyl)-2,3-dimethyl-1H-indol-1-yl)methyl)biphenyl-2-carboxylic acid] | 17 | > 1000 | (9%)
